As usually defined, the pKi is −log10 of the Ki, conventionally taken in molar units. What is called inhibition is the change of the read-out against control, counted positive when it falls.

What all share (format): biochemical
In one assay the target is T1, MPS1 (Homo sapiens, UniProt P33981).
T1 sequence (P33981 1-857): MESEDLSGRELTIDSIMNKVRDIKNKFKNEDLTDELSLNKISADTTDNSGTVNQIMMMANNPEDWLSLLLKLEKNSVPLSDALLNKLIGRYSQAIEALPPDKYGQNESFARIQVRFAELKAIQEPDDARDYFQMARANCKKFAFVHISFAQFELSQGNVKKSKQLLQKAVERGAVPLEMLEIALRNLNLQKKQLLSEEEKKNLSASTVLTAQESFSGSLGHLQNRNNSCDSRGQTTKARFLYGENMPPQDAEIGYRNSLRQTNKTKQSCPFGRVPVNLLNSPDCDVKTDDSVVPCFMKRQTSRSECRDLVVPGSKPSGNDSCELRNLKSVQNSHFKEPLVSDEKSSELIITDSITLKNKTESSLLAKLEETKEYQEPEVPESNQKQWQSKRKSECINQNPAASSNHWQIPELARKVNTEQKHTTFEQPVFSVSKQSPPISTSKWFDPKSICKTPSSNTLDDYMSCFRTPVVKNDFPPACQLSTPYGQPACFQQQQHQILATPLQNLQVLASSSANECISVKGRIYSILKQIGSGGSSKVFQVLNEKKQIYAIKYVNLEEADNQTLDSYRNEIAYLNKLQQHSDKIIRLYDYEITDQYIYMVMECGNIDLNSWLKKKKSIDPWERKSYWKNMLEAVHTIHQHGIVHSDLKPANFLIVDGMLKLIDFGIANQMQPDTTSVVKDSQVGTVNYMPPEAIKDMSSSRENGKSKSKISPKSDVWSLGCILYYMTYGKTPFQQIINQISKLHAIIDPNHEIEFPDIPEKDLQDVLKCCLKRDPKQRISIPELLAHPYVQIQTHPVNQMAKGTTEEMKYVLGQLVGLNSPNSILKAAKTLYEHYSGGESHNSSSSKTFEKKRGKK

The target in the next assay is T2, Aurora A (Homo sapiens, UniProt O14965).
T2 sequence (O14965 1-403): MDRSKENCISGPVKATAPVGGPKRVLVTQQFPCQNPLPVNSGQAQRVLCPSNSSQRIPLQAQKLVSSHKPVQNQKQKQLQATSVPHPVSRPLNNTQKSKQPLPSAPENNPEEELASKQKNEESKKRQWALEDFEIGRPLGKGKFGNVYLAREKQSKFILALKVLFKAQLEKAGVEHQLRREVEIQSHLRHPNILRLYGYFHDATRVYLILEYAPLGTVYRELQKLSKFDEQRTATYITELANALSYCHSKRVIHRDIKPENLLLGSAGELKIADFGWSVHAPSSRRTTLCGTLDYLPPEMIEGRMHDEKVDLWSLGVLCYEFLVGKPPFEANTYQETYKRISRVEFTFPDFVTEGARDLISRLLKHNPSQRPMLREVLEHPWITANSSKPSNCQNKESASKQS

A further assay deals with T3, AurA (Homo sapiens, UniProt O14965).
T3 construct: purchased Perkin Elmer (ProfilerPro assay kit 1)
T3 sequence (O14965 1-403): T2 sequence (O14965 1-403)
The assay can be described thus: 26-kinase panel mobility shift assay, single concentration. To be noted: read-out: % Inhibition AurA.

In a further assay the target is AurB (Homo sapiens, UniProt Q96GD4). Described as above. To be noted: read-out: % Inhibition AurB.
For a further assay, the target named is T4, RSK1 (Homo sapiens, UniProt Q15418).
T4 construct: purchased Perkin Elmer (ProfilerPro assay kit 1)
The assay is described as above. To be noted: read-out: % Inhibition RSK1.

In a further assay the target is T5, PKD2 (Homo sapiens, UniProt Q9BZL6).
T5 construct: purchased Perkin Elmer (ProfilerPro assay kit 1)
T5 sequence (Q9BZL6 1-878): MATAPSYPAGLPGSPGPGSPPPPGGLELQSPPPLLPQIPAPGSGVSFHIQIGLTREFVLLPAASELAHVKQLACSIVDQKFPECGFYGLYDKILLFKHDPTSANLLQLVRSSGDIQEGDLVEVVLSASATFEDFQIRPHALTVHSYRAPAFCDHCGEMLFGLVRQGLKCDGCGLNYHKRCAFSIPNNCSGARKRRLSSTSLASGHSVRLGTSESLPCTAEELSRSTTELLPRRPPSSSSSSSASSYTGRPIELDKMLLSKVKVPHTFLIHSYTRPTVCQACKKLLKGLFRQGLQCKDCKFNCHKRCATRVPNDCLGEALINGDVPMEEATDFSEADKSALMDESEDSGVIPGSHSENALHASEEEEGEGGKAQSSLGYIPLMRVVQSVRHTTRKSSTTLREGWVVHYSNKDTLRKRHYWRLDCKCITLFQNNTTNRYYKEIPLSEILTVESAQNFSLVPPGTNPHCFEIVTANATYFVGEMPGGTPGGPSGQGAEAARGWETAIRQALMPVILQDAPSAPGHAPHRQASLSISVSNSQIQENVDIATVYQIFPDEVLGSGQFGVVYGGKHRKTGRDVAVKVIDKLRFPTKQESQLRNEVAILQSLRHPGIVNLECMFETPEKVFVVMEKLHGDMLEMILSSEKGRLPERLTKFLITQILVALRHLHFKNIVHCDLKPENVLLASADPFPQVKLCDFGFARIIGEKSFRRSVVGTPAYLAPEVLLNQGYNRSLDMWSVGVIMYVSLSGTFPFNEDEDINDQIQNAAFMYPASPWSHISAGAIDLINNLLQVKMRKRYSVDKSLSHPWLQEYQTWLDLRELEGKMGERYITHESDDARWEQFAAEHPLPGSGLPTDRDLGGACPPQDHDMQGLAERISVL
The assay is described as above. To be noted: read-out: % Inhibition PKD2.

The target of the next assay is T6, LYN (Homo sapiens, UniProt P07948).
T6 construct: purchased Perkin Elmer (ProfilerPro assay kit 1)
The assay is described as above. The following applies: read-out: % Inhibition LYN.

In a further assay the target is T7, FYN (Homo sapiens, UniProt P06241).
T7 construct: purchased Perkin Elmer (ProfilerPro assay kit 1)
The assay is described as above. The following applies: read-out: % Inhibition FYN.

The next assay has as its target T8, AKT2 (Homo sapiens, UniProt P31751).
T8 construct: purchased Perkin Elmer ProfilerPro assay kit 1
Described as above. The following applies: read-out: % Inhibition AKT2.

The next assay addresses T9, AKT1 (Homo sapiens, UniProt P31749).
T9 construct: purchased Perkin Elmer ProfilerPro assay kit 1
Described as above. To be noted: read-out: % Inhibition AKT1.

pKi: −log10 of the molar value.

T4 sequence (Q15418 whole entry): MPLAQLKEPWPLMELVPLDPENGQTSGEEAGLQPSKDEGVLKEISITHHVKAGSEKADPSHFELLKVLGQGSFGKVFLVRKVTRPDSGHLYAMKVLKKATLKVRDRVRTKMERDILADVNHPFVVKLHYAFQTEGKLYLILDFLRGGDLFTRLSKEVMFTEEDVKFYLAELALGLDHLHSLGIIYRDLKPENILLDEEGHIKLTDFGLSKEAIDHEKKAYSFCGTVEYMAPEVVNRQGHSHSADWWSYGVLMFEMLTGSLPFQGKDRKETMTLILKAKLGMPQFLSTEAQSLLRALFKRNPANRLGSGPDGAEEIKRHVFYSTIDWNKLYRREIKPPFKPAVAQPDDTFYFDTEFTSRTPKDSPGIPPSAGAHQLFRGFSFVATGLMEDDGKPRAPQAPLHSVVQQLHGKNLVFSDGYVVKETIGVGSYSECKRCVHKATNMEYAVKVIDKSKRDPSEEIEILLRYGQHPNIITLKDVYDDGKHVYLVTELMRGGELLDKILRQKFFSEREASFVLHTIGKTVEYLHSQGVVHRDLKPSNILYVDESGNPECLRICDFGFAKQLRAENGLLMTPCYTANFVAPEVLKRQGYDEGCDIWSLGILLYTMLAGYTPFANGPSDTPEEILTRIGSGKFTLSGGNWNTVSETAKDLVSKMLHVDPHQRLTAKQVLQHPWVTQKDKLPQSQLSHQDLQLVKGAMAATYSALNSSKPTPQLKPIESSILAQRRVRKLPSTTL
Sequence of AurB (Q96GD4 whole entry): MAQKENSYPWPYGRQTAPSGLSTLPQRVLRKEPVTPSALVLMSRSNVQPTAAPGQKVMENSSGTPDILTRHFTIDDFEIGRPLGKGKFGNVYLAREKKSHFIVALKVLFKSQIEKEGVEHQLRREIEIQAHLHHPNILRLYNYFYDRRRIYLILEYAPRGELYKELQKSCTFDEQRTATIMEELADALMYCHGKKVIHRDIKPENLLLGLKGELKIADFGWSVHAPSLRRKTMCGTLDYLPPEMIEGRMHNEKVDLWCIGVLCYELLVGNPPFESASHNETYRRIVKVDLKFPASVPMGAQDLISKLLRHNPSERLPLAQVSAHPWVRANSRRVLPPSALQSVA
T6 sequence (P07948 whole entry): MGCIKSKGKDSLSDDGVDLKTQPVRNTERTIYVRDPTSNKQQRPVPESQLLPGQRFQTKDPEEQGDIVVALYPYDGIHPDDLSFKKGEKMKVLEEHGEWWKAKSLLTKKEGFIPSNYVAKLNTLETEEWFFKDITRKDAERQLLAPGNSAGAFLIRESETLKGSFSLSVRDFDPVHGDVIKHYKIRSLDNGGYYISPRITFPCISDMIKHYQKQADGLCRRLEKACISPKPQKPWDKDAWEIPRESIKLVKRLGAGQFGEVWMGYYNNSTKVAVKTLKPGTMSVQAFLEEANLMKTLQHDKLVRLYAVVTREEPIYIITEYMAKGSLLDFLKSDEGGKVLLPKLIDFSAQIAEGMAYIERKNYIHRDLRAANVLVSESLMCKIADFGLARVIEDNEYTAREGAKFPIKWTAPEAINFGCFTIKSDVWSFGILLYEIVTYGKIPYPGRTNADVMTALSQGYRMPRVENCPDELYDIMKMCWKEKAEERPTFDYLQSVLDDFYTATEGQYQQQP
T7 sequence (P06241 whole entry): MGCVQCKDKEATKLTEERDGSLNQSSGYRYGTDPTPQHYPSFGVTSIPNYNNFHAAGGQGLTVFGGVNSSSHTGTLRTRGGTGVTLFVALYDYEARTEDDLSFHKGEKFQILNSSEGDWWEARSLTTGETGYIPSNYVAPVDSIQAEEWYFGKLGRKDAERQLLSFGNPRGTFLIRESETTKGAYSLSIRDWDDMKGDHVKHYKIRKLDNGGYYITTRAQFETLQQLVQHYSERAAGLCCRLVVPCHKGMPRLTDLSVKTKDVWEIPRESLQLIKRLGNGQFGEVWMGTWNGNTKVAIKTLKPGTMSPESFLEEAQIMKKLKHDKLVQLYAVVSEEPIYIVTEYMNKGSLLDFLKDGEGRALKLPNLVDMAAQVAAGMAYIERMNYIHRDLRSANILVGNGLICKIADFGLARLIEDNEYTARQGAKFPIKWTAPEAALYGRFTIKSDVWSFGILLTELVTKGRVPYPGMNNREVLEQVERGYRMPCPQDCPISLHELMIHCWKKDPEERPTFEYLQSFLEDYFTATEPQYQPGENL
T9 sequence (P31749 whole entry): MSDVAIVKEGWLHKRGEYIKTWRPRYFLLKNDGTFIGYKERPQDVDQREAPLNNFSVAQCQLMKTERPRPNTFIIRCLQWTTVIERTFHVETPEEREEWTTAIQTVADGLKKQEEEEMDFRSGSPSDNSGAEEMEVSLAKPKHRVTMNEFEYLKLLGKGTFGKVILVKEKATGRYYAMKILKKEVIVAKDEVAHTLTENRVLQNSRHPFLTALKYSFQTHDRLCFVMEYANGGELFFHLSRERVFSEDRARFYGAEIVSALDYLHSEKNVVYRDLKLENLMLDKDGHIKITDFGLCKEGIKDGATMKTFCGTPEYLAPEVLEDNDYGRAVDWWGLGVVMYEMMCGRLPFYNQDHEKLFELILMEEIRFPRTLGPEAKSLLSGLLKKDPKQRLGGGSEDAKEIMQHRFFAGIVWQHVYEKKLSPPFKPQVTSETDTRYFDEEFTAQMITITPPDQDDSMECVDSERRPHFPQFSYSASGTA
T8 sequence (P31751 whole entry): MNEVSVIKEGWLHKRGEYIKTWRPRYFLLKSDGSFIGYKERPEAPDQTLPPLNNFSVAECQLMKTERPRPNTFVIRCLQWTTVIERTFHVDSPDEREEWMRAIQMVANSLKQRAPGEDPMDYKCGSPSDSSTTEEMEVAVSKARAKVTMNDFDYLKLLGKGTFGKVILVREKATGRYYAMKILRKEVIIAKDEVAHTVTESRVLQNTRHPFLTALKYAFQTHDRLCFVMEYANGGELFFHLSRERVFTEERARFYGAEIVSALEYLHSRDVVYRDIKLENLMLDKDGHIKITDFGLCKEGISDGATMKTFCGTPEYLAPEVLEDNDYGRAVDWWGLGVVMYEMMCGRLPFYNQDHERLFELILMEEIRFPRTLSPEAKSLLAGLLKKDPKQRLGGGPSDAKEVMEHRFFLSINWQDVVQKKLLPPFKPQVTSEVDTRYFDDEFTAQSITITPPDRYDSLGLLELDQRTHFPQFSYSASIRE
Protocol for AKT1: Mobility Shift Assay Protocol
(§1) Screening of 26 kinases using a mobility shift assay
(§2) A mobility shift assay to determine kinase inhibition was carried out using a
(§3) modified version of the ProfilerPro assay kit 1 (Perkin Elmer, Coventry, UK)
(§4) including MPS1 and Aurora B. Each kit contained an enzyme plate, a substrate
(§5) plate, reconstitution buffer, 1 M DTT, protease inhibitor cocktail and termination
(§6) buffer. Test compounds were added as a solution in DMSO.
(§7) peptide phosphorylation assay was carried out as per the manufacturer’s
(§8) instructions. The electrophoretic separation and analysis of the phosphorylated
(§9) and non-phosphorylated peptides was carried out on a 4-sipper chip using a
(§10) LabChip EZReader II (Perkin Elmer). Results were expressed as % inhibition of
(§11) peptide phosphorylation relative to control wells for 0 % (no test compound) and
(§12) 100 % (no ATP) inhibition. The percentage inhibition was calculated using the
(§13) % Inhibition = [1 - (% Conversion Sample / % Conversion 0% Inhibition Control)] x 100
Protocol for AKT2: (§14) In order to test the biochemical activity of our fragment library, a panel of 26 structurally diverse protein kinases was used.
as §1, §2, §3, §4, §5, §6, §7, §8, §9, §10, §11, §12, §13
Protocol for AurA: Mobility Shift Assay Protocol
as §1, §2, §3, §4, §5, §6, §7, §8, §9, §10, §11, §12, §13
Protocol for AurB: Mobility Shift Assay Protocol
as §1, §2, §3, §4, §5, §6, §7, §8, §9, §10, §11, §12, §13
Protocol for Aurora A: (§15) IC50 values were obtained for an expanded version of the fragment library using the previously described mobility shift assay.[44] Subsequently, Ki values were estimated from IC50 values to allow better comparison of the activity against targets which were measured at different substrate concentrations (Supplementary data Table 1).
(§16) IC50 values for MPS1, Aurora A and Aurora B inhibition were determined as previously described,[44] and Ki values were estimated from the mean IC50 values using the Cheng-Prusoff equation.[48]
(§17) Kinase [ATP] (M) [Enzyme] (nM) [Peptide Substrate] (M) MgCl2 (mM)
(§18) For all compounds, IC50 values for MPS1, Aurora A, and Aurora B were determined
(§19) using MPS1 and Aurora A/B mobility shift assays as described previously.1 IC50
(§20) values were calculated from a four-parameter logistic fit of percentage inhibition
(§21) versus concentration (at 8 compound concentrations) using GraphPad Prism 5
(§22) (GraphPad Software, Inc., CA, USA). Mean IC50 values were determined from two
(§23) independent measurements each carried out in duplicate. Ki values were estimated
(§24) from the mean IC50 values using the Cheng-Prusoff equation.
Protocol for FYN: as §2, §3, §4, §5, §6, §7, §8, §9, §10, §11, §12, §13
Protocol for LYN: as §2, §3, §4, §5, §6, §7, §8, §9, §10, §11, §12, §13
Protocol for MPS1: as §15, §16, §17, §18, §19, §20, §21, §22, §23, §24
Protocol for PKD2: as §14, §1, §2, §3, §4, §5, §6, §7, §8, §9, §10, §11, §12, §13
Protocol for RSK1: Mobility Shift Assay Protocol
as §1, §2, §3, §4, §5, §6, §7, §8, §9, §10, §11, §12, §13

For `O=C(Nc1cc(-c2ccnc(NC3CC3)n2)c[nH]c1=O)c1ccccc1` [Compound 24], the pKi at MPS1 (calculated from mean IC50 using the Cheng-Prusoff equation) is 5.49; at Aurora A (calculated from mean IC50 using the Cheng-Prusoff equation, read-out: AurA Ki) it was 4.76. In addition, the “MPS1 ligand efficiency (LE)” value on MPS1 (from Ki) came out at 0.29. The “AurA ligand efficiency (LE)” value at Aurora A (from Ki) was 0.25. Besides, the inhibition at 30 µM was 99% at AurA; 91% at AurB; 98% at RSK1; 69% at PKD2; 86% on LYN; 93% at FYN. Further, the inhibition at 30 µM worked out at 91% at AKT2 and 73% at AKT1.
